Experimental data published in ChEMBL document CHEMBL5291721, “A preclinical secondary pharmacology resource illuminates target-adverse drug reaction associations of marketed drugs” (Nat Commun, 2023).

Key:
[1] = molecular target: T1, 5-hydroxytryptamine receptor 3A (Homo sapiens, UniProt P46098); type: functional
T1 sequence (P46098 whole entry): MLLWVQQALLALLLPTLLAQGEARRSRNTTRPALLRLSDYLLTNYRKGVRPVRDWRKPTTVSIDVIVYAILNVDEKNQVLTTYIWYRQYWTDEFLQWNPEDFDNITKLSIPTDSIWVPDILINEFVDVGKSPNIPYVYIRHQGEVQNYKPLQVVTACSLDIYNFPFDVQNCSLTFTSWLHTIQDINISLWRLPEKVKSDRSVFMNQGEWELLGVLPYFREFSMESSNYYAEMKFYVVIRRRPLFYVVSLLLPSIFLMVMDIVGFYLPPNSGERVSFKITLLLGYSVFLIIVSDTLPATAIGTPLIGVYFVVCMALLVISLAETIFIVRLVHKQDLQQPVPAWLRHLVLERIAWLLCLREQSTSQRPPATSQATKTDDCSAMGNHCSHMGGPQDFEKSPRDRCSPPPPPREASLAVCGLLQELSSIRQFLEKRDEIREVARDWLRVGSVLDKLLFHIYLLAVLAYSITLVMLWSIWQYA

[2] = molecular target: Histamine H2 receptor (Homo sapiens, UniProt P25021); type: functional, cell-based
Chain of Histamine H2 receptor (P25021 whole entry): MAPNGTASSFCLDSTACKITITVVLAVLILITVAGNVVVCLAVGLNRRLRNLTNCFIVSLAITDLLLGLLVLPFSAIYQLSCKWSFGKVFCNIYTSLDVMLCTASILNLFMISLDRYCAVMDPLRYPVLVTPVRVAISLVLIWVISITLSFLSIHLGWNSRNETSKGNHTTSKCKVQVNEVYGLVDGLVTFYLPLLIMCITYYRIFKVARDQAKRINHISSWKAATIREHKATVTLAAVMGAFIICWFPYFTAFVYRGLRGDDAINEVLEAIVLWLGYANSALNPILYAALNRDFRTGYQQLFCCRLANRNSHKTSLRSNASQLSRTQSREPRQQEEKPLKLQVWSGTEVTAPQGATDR

[3] = molecular target: Sodium-dependent dopamine transporter (Homo sapiens, UniProt Q01959)
Chain of Sodium-dependent dopamine transporter (Q01959 whole entry): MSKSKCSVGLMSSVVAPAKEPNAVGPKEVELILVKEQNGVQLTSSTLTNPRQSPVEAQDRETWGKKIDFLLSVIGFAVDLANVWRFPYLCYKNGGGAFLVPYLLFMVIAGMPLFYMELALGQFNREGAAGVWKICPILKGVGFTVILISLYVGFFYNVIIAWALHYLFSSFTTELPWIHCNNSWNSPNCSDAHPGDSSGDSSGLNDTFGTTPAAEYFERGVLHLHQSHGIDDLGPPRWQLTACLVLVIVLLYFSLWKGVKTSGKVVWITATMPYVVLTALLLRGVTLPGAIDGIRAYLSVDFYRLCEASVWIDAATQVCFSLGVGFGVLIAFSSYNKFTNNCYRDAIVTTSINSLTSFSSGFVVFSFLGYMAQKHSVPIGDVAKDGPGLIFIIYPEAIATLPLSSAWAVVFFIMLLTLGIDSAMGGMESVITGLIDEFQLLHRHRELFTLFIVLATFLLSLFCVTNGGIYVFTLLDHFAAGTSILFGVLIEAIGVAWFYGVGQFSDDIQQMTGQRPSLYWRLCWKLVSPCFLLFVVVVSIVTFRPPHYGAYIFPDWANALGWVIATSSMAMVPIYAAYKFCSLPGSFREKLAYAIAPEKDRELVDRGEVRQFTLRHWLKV

[4] = molecular target: Growth hormone secretagogue receptor type 1 (Homo sapiens, UniProt Q92847)
Chain of Growth hormone secretagogue receptor type 1 (Q92847 whole entry): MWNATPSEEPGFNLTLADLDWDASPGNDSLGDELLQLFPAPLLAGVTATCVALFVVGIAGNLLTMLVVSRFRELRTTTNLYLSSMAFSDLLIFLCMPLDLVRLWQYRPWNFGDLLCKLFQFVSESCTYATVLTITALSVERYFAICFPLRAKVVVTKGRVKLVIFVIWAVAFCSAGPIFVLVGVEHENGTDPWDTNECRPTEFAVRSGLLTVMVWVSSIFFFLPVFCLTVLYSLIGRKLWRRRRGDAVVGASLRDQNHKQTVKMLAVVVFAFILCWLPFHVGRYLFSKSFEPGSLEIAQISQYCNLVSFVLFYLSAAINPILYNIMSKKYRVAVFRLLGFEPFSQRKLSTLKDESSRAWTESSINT

[5] = molecular target: T2, Alpha-1A adrenergic receptor (Homo sapiens, UniProt P35348); type: functional, cell-based
T2 sequence (P35348 whole entry): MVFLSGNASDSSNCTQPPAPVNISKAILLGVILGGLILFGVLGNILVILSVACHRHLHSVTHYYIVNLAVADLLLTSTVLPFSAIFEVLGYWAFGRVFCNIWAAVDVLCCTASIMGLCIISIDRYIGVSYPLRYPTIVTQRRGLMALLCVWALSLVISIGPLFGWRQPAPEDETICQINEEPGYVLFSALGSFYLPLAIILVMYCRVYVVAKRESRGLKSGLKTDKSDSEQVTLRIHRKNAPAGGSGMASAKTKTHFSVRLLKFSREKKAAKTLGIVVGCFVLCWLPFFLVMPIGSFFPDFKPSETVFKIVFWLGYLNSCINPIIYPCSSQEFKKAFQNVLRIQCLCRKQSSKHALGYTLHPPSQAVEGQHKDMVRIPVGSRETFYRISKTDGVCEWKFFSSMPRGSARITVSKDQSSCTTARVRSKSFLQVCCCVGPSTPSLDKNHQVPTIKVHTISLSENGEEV

[6] = molecular target: T3, Gastrin/cholecystokinin type B receptor (Homo sapiens, UniProt P32239)
T3 sequence (P32239 whole entry): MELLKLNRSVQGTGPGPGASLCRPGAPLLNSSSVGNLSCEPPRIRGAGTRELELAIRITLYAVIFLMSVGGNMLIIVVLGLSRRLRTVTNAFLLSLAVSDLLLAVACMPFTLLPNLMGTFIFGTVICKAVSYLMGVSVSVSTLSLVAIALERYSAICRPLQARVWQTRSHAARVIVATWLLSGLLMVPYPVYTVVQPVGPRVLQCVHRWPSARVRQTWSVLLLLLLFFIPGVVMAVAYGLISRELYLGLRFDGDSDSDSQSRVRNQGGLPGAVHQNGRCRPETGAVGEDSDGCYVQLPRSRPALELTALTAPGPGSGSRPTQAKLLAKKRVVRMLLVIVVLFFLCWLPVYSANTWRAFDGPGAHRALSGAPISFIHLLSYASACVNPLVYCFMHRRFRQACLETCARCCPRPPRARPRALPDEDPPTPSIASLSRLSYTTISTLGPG

[7] = molecular target: T4, B2 bradykinin receptor (Homo sapiens, UniProt P30411)
T4 sequence (P30411 whole entry): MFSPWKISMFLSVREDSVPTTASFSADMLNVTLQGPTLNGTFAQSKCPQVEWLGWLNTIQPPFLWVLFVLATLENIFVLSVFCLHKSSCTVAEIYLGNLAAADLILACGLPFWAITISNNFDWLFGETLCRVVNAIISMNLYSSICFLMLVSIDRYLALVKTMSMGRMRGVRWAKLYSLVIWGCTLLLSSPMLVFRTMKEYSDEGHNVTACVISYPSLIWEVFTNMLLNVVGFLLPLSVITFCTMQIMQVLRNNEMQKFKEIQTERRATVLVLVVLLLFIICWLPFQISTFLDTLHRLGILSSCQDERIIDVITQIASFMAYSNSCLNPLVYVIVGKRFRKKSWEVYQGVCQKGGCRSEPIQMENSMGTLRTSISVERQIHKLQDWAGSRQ

[8] = molecular target: Sodium-dependent noradrenaline transporter (Homo sapiens, UniProt P23975)
Chain of Sodium-dependent noradrenaline transporter (P23975 whole entry): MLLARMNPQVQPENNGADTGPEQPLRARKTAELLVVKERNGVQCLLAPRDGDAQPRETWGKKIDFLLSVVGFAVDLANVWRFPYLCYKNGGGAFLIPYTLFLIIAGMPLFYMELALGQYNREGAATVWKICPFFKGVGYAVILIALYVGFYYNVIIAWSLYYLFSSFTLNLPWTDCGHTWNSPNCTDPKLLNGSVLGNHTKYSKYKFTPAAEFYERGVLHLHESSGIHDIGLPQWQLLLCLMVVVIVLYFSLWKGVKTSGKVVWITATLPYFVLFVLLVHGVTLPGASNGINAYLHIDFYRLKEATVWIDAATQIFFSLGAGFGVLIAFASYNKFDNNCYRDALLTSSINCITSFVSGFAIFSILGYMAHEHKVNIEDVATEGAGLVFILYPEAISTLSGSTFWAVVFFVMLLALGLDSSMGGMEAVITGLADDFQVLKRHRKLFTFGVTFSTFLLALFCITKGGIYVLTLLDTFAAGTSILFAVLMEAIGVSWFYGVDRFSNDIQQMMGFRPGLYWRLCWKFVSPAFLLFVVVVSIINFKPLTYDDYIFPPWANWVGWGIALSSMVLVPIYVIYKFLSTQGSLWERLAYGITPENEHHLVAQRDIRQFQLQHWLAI

[9] = molecular target: T5, 5-hydroxytryptamine receptor 2C (Homo sapiens, UniProt P28335)
T5 sequence (P28335 whole entry): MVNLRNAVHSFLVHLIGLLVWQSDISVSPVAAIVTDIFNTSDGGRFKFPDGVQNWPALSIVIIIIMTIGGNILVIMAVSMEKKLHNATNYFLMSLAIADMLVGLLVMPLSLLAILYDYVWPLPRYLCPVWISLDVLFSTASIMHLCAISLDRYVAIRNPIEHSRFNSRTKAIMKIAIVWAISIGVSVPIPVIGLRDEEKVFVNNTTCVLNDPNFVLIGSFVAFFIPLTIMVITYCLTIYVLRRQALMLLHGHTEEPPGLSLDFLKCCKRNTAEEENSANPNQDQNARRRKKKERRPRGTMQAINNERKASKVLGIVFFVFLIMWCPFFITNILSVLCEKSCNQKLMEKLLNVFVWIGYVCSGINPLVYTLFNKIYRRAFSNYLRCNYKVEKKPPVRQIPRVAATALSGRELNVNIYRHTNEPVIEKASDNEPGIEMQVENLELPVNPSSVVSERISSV

[10] = molecular target: 3',5'-cyclic-AMP phosphodiesterase 4D (Homo sapiens, UniProt Q08499); type: functional
Chain of 3',5'-cyclic-AMP phosphodiesterase 4D (Q08499 whole entry): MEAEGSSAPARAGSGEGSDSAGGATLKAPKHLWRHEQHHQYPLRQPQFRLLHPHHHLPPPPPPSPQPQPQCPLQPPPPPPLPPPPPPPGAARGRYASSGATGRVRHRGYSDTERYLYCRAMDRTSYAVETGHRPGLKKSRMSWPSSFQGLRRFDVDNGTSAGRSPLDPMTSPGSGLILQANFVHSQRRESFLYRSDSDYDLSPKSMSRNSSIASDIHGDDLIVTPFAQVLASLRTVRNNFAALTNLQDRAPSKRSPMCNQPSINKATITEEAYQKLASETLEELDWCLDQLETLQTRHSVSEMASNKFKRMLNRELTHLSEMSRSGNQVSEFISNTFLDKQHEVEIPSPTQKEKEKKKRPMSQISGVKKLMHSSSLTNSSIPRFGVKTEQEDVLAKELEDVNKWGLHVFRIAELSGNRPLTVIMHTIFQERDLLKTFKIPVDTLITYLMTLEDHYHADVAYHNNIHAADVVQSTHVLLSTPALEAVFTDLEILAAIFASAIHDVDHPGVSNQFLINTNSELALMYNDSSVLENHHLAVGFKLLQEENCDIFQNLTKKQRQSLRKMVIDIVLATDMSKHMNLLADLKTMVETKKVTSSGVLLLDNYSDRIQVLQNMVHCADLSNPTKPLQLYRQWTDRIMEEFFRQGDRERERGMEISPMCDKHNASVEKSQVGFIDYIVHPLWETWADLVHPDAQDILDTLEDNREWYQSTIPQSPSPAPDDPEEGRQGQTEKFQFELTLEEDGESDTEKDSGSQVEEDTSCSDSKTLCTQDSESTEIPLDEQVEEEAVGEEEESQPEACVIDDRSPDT
Also: assay procedure not described here.

| SMILES | AC50 [1] [µM] | AC50 [2] [µM] | AC50 [3] [µM] | AC50 [4] [µM] | AC50 [5] [µM] | AC50 [6] [µM] | AC50 [7] [µM] | AC50 [8] [µM] | AC50 [9] [µM] | AC50 [10] [µM] |
| --- | --- | --- | --- | --- | --- | --- | --- | --- | --- | --- |
| CC(=O)c1ccc2c(c1)N(CCCN1CCC(CCO)CC1)c1ccccc1S2 [PIPERACETAZINE] | > 30 | > 30 | 7.6 | > 30 | > 30 | > 30 | > 30 | 1.8 | 11 | > 30 |
| CCCN(CC)C(CC)C(=O)Nc1c(C)cccc1C (stereo not given) [ETIDOCAINE] | > 30 | > 30 | > 30 | > 30 | > 30 | > 30 | > 30 | > 30 | > 30 | > 30 |
| CCN(CC)CCOC(=O)c1ccc(N)cc1Cl [CHLOROPROCAINE] | 11 | > 30 | > 30 | > 30 | > 30 | > 30 | > 30 | > 30 | 17 | > 30 |
| [H]/N=C(/N)N[C@H]1[C@H](O)[C@@H](O)[C@H](O[C@@H]2O[C@@H](C)[C@](O)(C=O)[C@H]2O[C@@H]2O[C@@H](CO)[C@H](O)[C@@H](O)[C@@H]2NC)[C@@H](N/C(N)=N\[H])[C@@H]1O [STREPTOMYCIN] | > 30 | > 30 | > 30 | > 30 | > 30 | > 30 | > 30 | > 30 | > 30 | > 30 |
| CN1c2ccccc2C(NCCCCCCC(=O)O)c2ccc(Cl)cc2S1(=O)=O (stereo not given) [TIANEPTINE] | > 30 | > 30 | > 30 | > 30 | > 30 | > 30 | > 30 | > 30 | > 30 | > 30 |
| N=C(N)NCCCCCCC(=O)NC(O)C(=O)NCCCCNCCCN (stereo not given) | > 30 | > 30 | > 30 | > 30 | > 30 | > 30 | > 30 | > 30 | > 30 | > 30 |
| CCOC(=O)NNc1ccc(N(CC)CC(C)O)nn1 (stereo not given) [CADRALAZINE] | > 30 | > 30 | > 30 | > 30 | > 30 | > 30 | > 30 | > 30 | > 30 | > 30 |
| Nc1nc2c(c(=O)[nH]1)N(C=O)C(CNc1ccc(C(=O)N[C@@H](CCC(=O)O)C(=O)O)cc1)CN2 (stereo not given in full) [LEUCOVORIN] | > 30 | > 30 | > 30 | > 30 | > 30 | > 30 | > 30 | > 30 | > 30 | > 30 |
| CS(=O)(=O)OCCCCOS(C)(=O)=O [BUSULFAN] | > 30 | > 30 | > 30 | > 30 | > 30 | > 30 | > 30 | > 30 | > 30 | > 30 |
| CC(C)c1cc2c(cc1S(=O)(=O)O)[C@@]1(C)CCC[C@@](C)(C(=O)O)[C@@H]1CC2 [ECABET] | > 30 | > 30 | > 30 | > 30 | > 30 | > 30 | > 30 | > 30 | > 30 | > 30 |
| CC(C)OC(=O)C(C(=O)OC(C)C)=C1SC=CS1 [MALOTILATE] | > 30 | > 30 | > 30 | > 30 | > 30 | > 30 | > 30 | > 30 | > 30 | 4.2 |
| Cc1ccc(=O)n(-c2ccccc2)c1 [PIRFENIDONE] | > 30 | > 30 | > 30 | > 30 | > 30 | > 30 | > 30 | > 30 | > 30 | > 30 |
| CCCCCCOC(=O)CCC(=O)CN [HEXAMINOLEVULINATE] | > 30 | > 30 | > 30 | > 30 | > 30 | > 30 | > 30 | > 30 | 24 | > 30 |
| O=C(O)c1ccccc1Nc1cccc(C(F)(F)F)c1 [FLUFENAMIC ACID] | > 30 | > 10 | > 30 | > 30 | > 30 | > 30 | > 30 | > 30 | 4.6 | > 30 |
| CCCOC(C(=O)OC1CCN(C)CC1)(c1ccccc1)c1ccccc1 [PROPIVERINE] | > 30 | > 30 | 16 | > 30 | > 30 | > 30 | > 30 | > 30 | 9.9 | > 30 |
| CC(C)(C)NCC(O)c1cc(Cl)c(N)c(Cl)c1 (stereo not given) [CLENBUTEROL] | > 30 | > 30 | 27.1 | > 30 | > 30 | > 30 | > 30 | 27.9 | > 30 | > 30 |
| CCCC[C@H](C)C[C@H](O)/C=C/[C@H]1[C@H](O)CC(=O)[C@@H]1CCCC/C=C/C(=O)O [LIMAPROST] | > 30 | > 30 | > 30 | > 30 | > 30 | > 30 | > 30 | > 30 | > 30 | > 30 |
| Clc1ccc2c(c1)C(c1ccccc1)=NCc1nncn1-2 [ESTAZOLAM] | > 30 | > 10 | > 30 | > 30 | > 30 | > 30 | > 30 | > 30 | > 30 | 10 |
